PubChem BioAssay AID256 (DTP/NCI, 2004)
“And” between values parts separate entries of the source, which are not always exact repeats. Equal entries are not always repeated. Inconclusive results and toxic doses are left out. Rule for the calls: active = survival T/C of 150% or more; inactive = T/C below 125% in these data.

Tested on: CD2F1 mice, L1210 leukemia ip, survival T/C
Test: NCI In Vivo Anticancer Drug Screen. Data for tumor model L1210 Leukemia (intraperitoneal) in CD2F1 (CDF1) mice
Conditions: higher = longer survival
Outline: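 Vehicle-treated tumor-bearing mice served as controls (C) for compound-treated mice (T). Reported figure is T divided by C.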

[1] = endpoint: mean survival time, dose: 100.0 mg/kg/injection, schedule: Q04DX003 (ip), vehicle: saline with Tween-80
[2] = endpoint: mean survival time, dose: 200.0 mg/kg/injection, schedule: Q04DX003 (ip), vehicle: saline with Tween-80
[3] = endpoint: mean survival time, dose: 400.0 mg/kg/injection, schedule: Q04DX003 (ip), vehicle: saline with Tween-80
[4] = endpoint: mean survival time, dose: 10.0 mg/kg/injection, schedule: Q01DX009 (ip), vehicle: saline with Tween-80
[5] = endpoint: mean survival time, dose: 20.0 mg/kg/injection, schedule: Q01DX009 (ip), vehicle: saline with Tween-80
[6] = endpoint: mean survival time, dose: 25.0 mg/kg/injection, schedule: Q01DX009 (ip), vehicle: saline with Tween-80
[7] = endpoint: mean survival time, dose: 50.0 mg/kg/injection, schedule: Q01DX009 (ip), vehicle: saline with Tween-80
[8] = endpoint: mean survival time, dose: 100.0 mg/kg/injection, schedule: Q01DX009 (ip), vehicle: saline with Tween-80
[9] = endpoint: mean survival time, dose: 50.0 mg/kg/injection, schedule: Q04DX003 (ip), vehicle: saline with Tween-80
[10] = endpoint: mean survival time, dose: 25.0 mg/kg/injection, schedule: Q04DX002 (ip), vehicle: saline
[11] = endpoint: mean survival time, dose: 50.0 mg/kg/injection, schedule: Q04DX002 (ip), vehicle: saline
[12] = endpoint: mean survival time, dose: 100.0 mg/kg/injection, schedule: Q04DX002 (ip), vehicle: saline
[13] = endpoint: mean survival time, dose: 12.5 mg/kg/injection, schedule: Q01DX009 (ip), vehicle: saline
[14] = endpoint: mean survival time, dose: 25.0 mg/kg/injection, schedule: Q01DX009 (ip), vehicle: saline
[15] = endpoint: mean survival time, dose: 50.0 mg/kg/injection, schedule: Q01DX009 (ip), vehicle: saline
[16] = endpoint: mean survival time, dose: 50.0 mg/kg/injection, schedule: Q01DX009 (ip), vehicle: Klucel (hydroxypropylcellulose) (HPC)
[17] = endpoint: mean survival time, dose: 100.0 mg/kg/injection, schedule: Q01DX009 (ip), vehicle: Klucel (hydroxypropylcellulose) (HPC)
[18] = endpoint: mean survival time, dose: 200.0 mg/kg/injection, schedule: Q01DX009 (ip), vehicle: Klucel (hydroxypropylcellulose) (HPC)

Measured: T/C

COc1ccccc1NC(=O)Oc1ccc2ccccc2c1
inactive: endpoint: mean survival time, dose: 100.0 mg/kg/injection, schedule: Q04DX002 (ip), vehicle: saline with Tween-80 103 % of control | endpoint: mean survival time, dose: 200.0 mg/kg/injection, schedule: Q04DX002 (ip), vehicle: saline with Tween-80 91 % of control

O=[N+]([O-])c1ccc(C2C3C(c4ccccc4)=NCCCN32)cc1 (stereo not given)
inactive: [1] 104 % of control | [2] 97 % of control | [3] 97 % of control

CCO/C=N/NC(=O)CNC(=O)C=[N+]=[N-]
inactive: [1] 108 % of control | [2] 103 % of control | [3] 108 % of control

O=C(Nc1cc(Cl)ccc1C(=O)O)c1cccc(C[n+]2ccccc2)c1
inactive: endpoint: median survival time, dose: 50.0 mg/kg/injection, schedule: Q01DX005 (ip), vehicle: saline with Tween-80 105 % of control | endpoint: median survival time, dose: 100.0 mg/kg/injection, schedule: Q01DX005 (ip), vehicle: saline with Tween-80 98 % of control | endpoint: median survival time, dose: 200.0 mg/kg/injection, schedule: Q01DX005 (ip), vehicle: saline with Tween-80 95 % of control | endpoint: median survival time, dose: 400.0 mg/kg/injection, schedule: Q01DX005 (ip), vehicle: saline with Tween-80 91 % of control

Nc1nc(NNC(=O)CCCO)c2nonc2n1
inactive: endpoint: mean survival time, dose: 9.4 mg/kg/injection, schedule: Q01DX005 (ip), vehicle: other 97 % of control | endpoint: mean survival time, dose: 18.8 mg/kg/injection, schedule: Q01DX005 (ip), vehicle: other 109 % of control | endpoint: mean survival time, dose: 37.5 mg/kg/injection, schedule: Q01DX005 (ip), vehicle: other 105 % of control | endpoint: mean survival time, dose: 75.0 mg/kg/injection, schedule: Q01DX005 (ip), vehicle: other 105 % of control | endpoint: mean survival time, dose: 150.0 mg/kg/injection, schedule: Q01DX005 (ip), vehicle: other 105 % of control

N#CN1CCC2CC3(CCC2C1)OCCO3 (stereo not given)
inactive: endpoint: mean survival time, dose: 100.0 mg/kg/injection, schedule: Q01DX001 (ip), vehicle: saline 96 % of control | endpoint: mean survival time, dose: 200.0 mg/kg/injection, schedule: Q01DX001 (ip), vehicle: saline 91 % of control | endpoint: mean survival time, dose: 400.0 mg/kg/injection, schedule: Q01DX001 (ip), vehicle: saline 96 % of control

CCC(C)C#N (stereo not given)
inactive: endpoint: mean survival time, dose: 5.0 mg/kg/injection, schedule: Q01DX009 (ip), vehicle: saline with Tween-80 98 % of control | endpoint: mean survival time, dose: 5.0 mg/kg/injection, schedule: Q04DX003 (ip), vehicle: saline 97 % of control | [4] 100 % of control | endpoint: mean survival time, dose: 10.0 mg/kg/injection, schedule: Q04DX003 (ip), vehicle: saline 103 % of control | [5] 94 % of control | endpoint: mean survival time, dose: 20.0 mg/kg/injection, schedule: Q04DX003 (ip), vehicle: saline 103 % of control

N#CCC(C#N)N1CCOCC1 (stereo not given)
inactive: [6] 98 % of control | [7] 102 % of control | [8] 102 % of control

O=C(NNC(=O)c1cccc(C(=O)NNC(=O)c2ccc(Cl)c(Cl)c2)n1)c1ccc(Cl)c(Cl)c1
inactive: endpoint: median survival time, dose: 43.2 mg/kg/injection, schedule: Q01DX005 (ip), vehicle: Klucel (hydroxypropylcellulose) (HPC) 110 % of control | endpoint: median survival time, dose: 72.0 mg/kg/injection, schedule: Q01DX005 (ip), vehicle: Klucel (hydroxypropylcellulose) (HPC) 115 % of control | endpoint: median survival time, dose: 120.0 mg/kg/injection, schedule: Q01DX005 (ip), vehicle: Klucel (hydroxypropylcellulose) (HPC) 115 % of control and 116 % of control | endpoint: median survival time, dose: 200.0 mg/kg/injection, schedule: Q01DX005 (ip), vehicle: Klucel (hydroxypropylcellulose) (HPC) 120 % of control and 86 % of control | endpoint: median survival time, dose: 333.33 mg/kg/injection, schedule: Q01DX005 (ip), vehicle: Klucel (hydroxypropylcellulose) (HPC) 92 % of control

COc1ccccc1NC(C)=O
inactive: [8] 96 % of control | [1] 101 % of control | endpoint: mean survival time, dose: 200.0 mg/kg/injection, schedule: Q01DX009 (ip), vehicle: saline with Tween-80 98 % of control | [2] 96 % of control | endpoint: mean survival time, dose: 400.0 mg/kg/injection, schedule: Q01DX009 (ip), vehicle: saline with Tween-80 96 % of control | [3] 101 % of control

O=C1CC2CCC1C2Cl (stereo not given)
inactive: endpoint: mean survival time, dose: 6.25 mg/kg/injection, schedule: Q04DX003 (ip), vehicle: saline with Tween-80 101 % of control | endpoint: mean survival time, dose: 12.5 mg/kg/injection, schedule: Q04DX003 (ip), vehicle: saline with Tween-80 113 % of control | endpoint: mean survival time, dose: 25.0 mg/kg/injection, schedule: Q04DX003 (ip), vehicle: saline with Tween-80 97 % of control | [9] 97 % of control

N.N.N.N.N.N#CN=C(N)N.[Co+3].[O-][Cl+3]([O-])([O-])[O-]
inactive: [10] 97 % of control | [11] 101 % of control | [12] 101 % of control

CCCCCCCCCCCCNC(=O)C[n+]1cccc(C(=O)NC)c1
inactive: [13] 98 % of control | endpoint: mean survival time, dose: 18.8 mg/kg/injection, schedule: Q04DX003 (ip), vehicle: saline 98 % of control | [14] 101 % of control | endpoint: mean survival time, dose: 37.5 mg/kg/injection, schedule: Q04DX003 (ip), vehicle: saline 95 % of control | [15] 98 % of control | endpoint: mean survival time, dose: 75.0 mg/kg/injection, schedule: Q04DX003 (ip), vehicle: saline 101 % of control

O=C1CC[C@@H]2CCCC[C@@H]2C1
inactive: endpoint: mean survival time, dose: 12.5 mg/kg/injection, schedule: Q01DX009 (ip), vehicle: saline with Tween-80 96 % of control | [6] 92 % of control | [7] 98 % of control | [9] 98 % of control

CC(=O)N(C)N=Nc1ccc(C)cc1
inactive: endpoint: mean survival time, dose: 88.0 mg/kg/injection, schedule: Q04DX003 (ip), vehicle: other 114 % of control | endpoint: mean survival time, dose: 200.0 mg/kg/injection, schedule: Q04DX003 (ip), vehicle: other 121 % of control

O=Cc1cc(Cl)c(O)c(Cl)c1
inactive: endpoint: mean survival time, dose: 100.0 mg/kg/injection, schedule: Q04DX003 (ip), vehicle: Klucel (hydroxypropylcellulose) (HPC) 94 % of control | endpoint: mean survival time, dose: 200.0 mg/kg/injection, schedule: Q04DX003 (ip), vehicle: Klucel (hydroxypropylcellulose) (HPC) 100 % of control

O=c1[nH]cnc2c1cnn2CN1CCOCC1
inactive: endpoint: median survival time, dose: 25.0 mg/kg/injection, schedule: Q01DX009 (ip), vehicle: Klucel (hydroxypropylcellulose) (HPC) 106 % of control | endpoint: median survival time, dose: 50.0 mg/kg/injection, schedule: Q01DX009 (ip), vehicle: Klucel (hydroxypropylcellulose) (HPC) 106 % of control | endpoint: median survival time, dose: 100.0 mg/kg/injection, schedule: Q01DX009 (ip), vehicle: Klucel (hydroxypropylcellulose) (HPC) 110 % of control | endpoint: median survival time, dose: 200.0 mg/kg/injection, schedule: Q01DX009 (ip), vehicle: Klucel (hydroxypropylcellulose) (HPC) 114 % of control

COc1cc2c(cc1OC)C(C#N)N(C(=O)c1ccccc1)C=C2 (stereo not given)
inactive: endpoint: mean survival time, dose: 25.0 mg/kg/injection, schedule: Q01DX009 (ip), vehicle: water 93 % of control | endpoint: mean survival time, dose: 50.0 mg/kg/injection, schedule: Q01DX009 (ip), vehicle: water 100 % of control | endpoint: mean survival time, dose: 100.0 mg/kg/injection, schedule: Q01DX009 (ip), vehicle: water 93 % of control | endpoint: mean survival time, dose: 200.0 mg/kg/injection, schedule: Q01DX009 (ip), vehicle: water 94 % of control | endpoint: mean survival time, dose: 400.0 mg/kg/injection, schedule: Q01DX009 (ip), vehicle: water 86 % of control

c1ccc(CC23CCCCC2N3)cc1 (stereo not given)
inactive: endpoint: mean survival time, dose: 100.0 mg/kg/injection, schedule: Q01DX001 (ip), vehicle: saline sonified 96 % of control | endpoint: mean survival time, dose: 200.0 mg/kg/injection, schedule: Q01DX001 (ip), vehicle: saline sonified 94 % of control

O=C1OC(=O)C2C3C=CC(O3)C12 (stereo not given)
inactive: [4] 100 % of control | [13] 105 % of control | endpoint: mean survival time, dose: 12.5 mg/kg/injection, schedule: Q04DX003 (ip), vehicle: saline 95 % of control | [5] 98 % of control | [14] 94 % of control | [10] 104 % of control | endpoint: mean survival time, dose: 25.0 mg/kg/injection, schedule: Q04DX003 (ip), vehicle: saline 98 % of control | [15] 102 % of control | [11] 104 % of control | endpoint: mean survival time, dose: 50.0 mg/kg/injection, schedule: Q04DX003 (ip), vehicle: saline 95 % of control | [12] 97 % of control and 98 % of control

CC12CCC(C/C1=C\C#N)C(C)(C)O2 (stereo not given)
inactive: [16] 97 % of control | [17] 94 % of control | [18] 105 % of control

CC1(OC(=O)c2ccccc2)CC(C)(C)[N+]([O-])=N1 (stereo not given)
inactive: endpoint: mean survival time, dose: 25.0 mg/kg/injection, schedule: Q01DX009 (ip), vehicle: Klucel (hydroxypropylcellulose) (HPC) 96 % of control | [16] 96 % of control | [17] 100 % of control | [18] 91 % of control
